≈ marks a conversion by molar mass, not a printed value. Where two headings read alike, the source gives them in different places. Where a SMILES comes first, the peptide text is derived from it. Bridges are numbered along the chain shown (N, C = ends).
Experiments:
[1] = test system: Micrococcus luteus ATCC4698
Method: (§1) Four Gram-positive bacteria: Listeria monocytogenes ATCC13932, Bacillus cereus ATCC11778, Staphylococcus aureus ATCC12900, and Micrococcus luteus ATCC4698 and three Gram-negative bacteria: Escherichia coli ATCC11775, Pectobacterium carotovorum MCC2112, and Salmonella typhimurium ATCC9844 were used in this study. These strains were stored at −80 °C in 25% (v/v) glycerol.
(§2) Antimicrobial assays against various bacterial cultures were done using the microdilution broth assay according to the Clinical and Laboratory Standards Institute (CLSI)[64] with some modifications. Mueller-Hinton broth was used to dilute the peptide stock and the bacterial inoculum. Inoculum was prepared from the mid-logarithmic phase culture. Each well of the microtiter plates received aliquots of 100 µL of the media containing different concentrations of peptide ranging from 0.3 to 300 µg/mL. The final concentration of bacteria in the wells was 5 × 10^5 Colony Forming Units (CFU) per mL. Ampicillin was used as positive control. For negative control, ultrapure water was used instead of peptides. Microtiter plates were incubated at 37 °C for 5–6 h with continuous shaking at 130 rpm (M. luteus cells were incubated for 7–8 h). The incubation time used for these assays was initially optimized using a 20-h incubation period. […] MIC assays were performed as three independent experiments in triplicates.

[2] = target: T1, bovine trypsin (Bos taurus, UniProt P00760); conditions: BAPNA substrate, pH 8.2, 0.05 M Tris-HCl, 0.02 M CaCl2, 37 °C, double reciprocal and Dixon plot, mean and standard error of two biological replicates
Method: (§3) The amidase activity of trypsin and its inhibition was assayed using the chromogenic substrate BAPNA at pH 8.2 in 0.05 M Tris-HCl containing 0.02 M CaCl2 at 37 °C. The assay reaction contained 50 µL of trypsin solution (40–50 μg of trypsin in 1 mM HCl), 50 µL of water, and 125 µL of the substrate. The reaction was carried out at 37 °C for 10 min and stopped by addition of 0.25 mL of 30% acetic acid. […] The trypsin solution was incubated with an aliquot of inhibitor for 10 min at 37 °C and reaction started by the addition of 125 µL substrate and incubated at 37 °C for 10 min. […] The effect of varying substrate concentration (BAPNA) on bovine trypsin in the presence of fixed concentrations of peptides was studied. The inhibition constants (Ki) were evaluated using the double reciprocal and Dixon plot of the data[65],[66]. Data presented are averages and standard error calculated from two biological replicate experiments.

[3] = test system: B. cereus; test: Propidium iodide (PI) uptake assay; type: cell-based, Bacillus cereus; conditions: peptides at 2X MIC, Fig. 4e; three biological replicates
Method: B. cereus and M. luteus were grown in MH broth to logarithmic phase of growth and then diluted to OD600 ~ 0.25. Serial dilutions of the antimicrobial peptides (final concentrations, 0–100 μg/mL) were added to the wells of a black-walled microplate. Hundred microliters of the bacterial suspension containing PI (final concentration, 10 μM) was added to the wells. The emitted fluorescence was measured at excitation and emission wavelengths of 585 and 620 nm, respectively, for 2 h using a multimode plate reader (Varioskan Flash, Thermo Scientific, USA). The percentage of membrane permeabilization was calculated as the percent of fluorescent intensity of peptide-treated samples with respect to fluorescence intensity of PI-loaded, peptide untreated samples. PI uptake assays were performed as three independent experiments in triplicates.

[4] = test system: human red blood cells (hRBCs); conditions: peptide 0 to 200 μg/mL, 4% hRBCs in PBS, 1 h, 37 °C, absorbance 414 nm, Triton X-100 = 100%; three biological replicates
Method: The hemolytic activity of the peptide was evaluated using human red blood cells (hRBCs). Erythrocytes were separated from 1 mL of blood by centrifugation at 1500 rpm for 10 min. Collected hRBCs were washed three times with PBS, diluted to 4% (v/v) in PBS. Hundred microliters of the hRBCs having peptides ranging from 4 to 200 µg/mL as added into 96-well microtiter plate. The plates were incubated for 1 h at 37 °C without agitation and centrifuged at 1500 rpm for 5 min. Aliquots (100 μL) of the supernatant were transferred to 96-well plates and absorbance was measured at 414 nm. PBS and 1% Triton X-100 were used as control for 0% and 100% hemolysis, respectively. Percentage of hemolysis was calculated as (AT − AC)/(AX − AC) × 100; where AT is the experimental absorbance of treated supernatants, AC is the control absorbance of PBS-treated cell supernatant, and AX is the absorbance of 0.1% (v/v) Triton X-100 lysed cells. Data presented are averages and standard error from three biological replicate experiments.

[5] = test system: Bacillus cereus ATCC11778
Method: as §1, §2

[6] = test system: Salmonella typhimurium ATCC9844
Method: as §1, §2

[7] = test system: Pectobacterium carotovorum MCC2112
Method: as §1, §2

[8] = test system: Staphylococcus aureus ATCC12900
Method: as §1, §2

[9] = test system: Escherichia coli ATCC11775
Method: as §1, §2

[10] = test system: Listeria monocytogenes ATCC13932
Method: as §1, §2

[11] = target: T1, bovine trypsin; test: biochemical; conditions: SEM
Method: as §3

[12] = test system: ARPE-19 cells; conditions: 16 h, WST-1, Fig. 10a ARPE-19
Method: Cytotoxicity against adult retinal pigmented epithelial (ARPE-19, ATCC CRL2302) cells was measured using WST assay. ARPE-19 cells growing in log phase were seeded into 96-well cell-culture plates at 4 × 10^4 the cells were incubated at 37 °C for 24 h under 5% CO2. Peptide is added with final concentrations of 4–200 µg/mL in Dulbecco’s modified Eagle medium (DMEM/F12). Nutrient mixture media for the treatment group, whereas for the negative control group, media alone was added. The cells were incubated for 16 h at 37 °C under 5% CO2. Ten microliters of WST-1 reagent was added into each well. Plate was incubated at 37 °C for 2 h. Color intensity was measured at 450 nm. Cytotoxicity data presented are averages and standard error from three biological replicate experiments.

[13] = test system: B. cereus
Method: as §2
To determine the stability of HSEP3 at higher temperatures, 20 μL of HSEP3 (4 mg/mL) and 20 μL of Nisin in a 0.5 mL tube were autoclaved (for moist heat) at 121 °C for 20 min or heated at 95 °C for 30 min (for dry heat) and cooled to room temperature. Mixture was then used to test the antibacterial activity as previously described. Experiments were repeated in LB media to study the effect of complex media on antibacterial activity. All the experiments were repeated at least two times.

[14] = test system: B. cereus spores; type: cell-based, Bacillus cereus; conditions: spore suspension, resazurin; repeated at least twice
Method: B. cereus spores were used to test the effect of peptides on spore germination. Spores were prepared by inoculating 3 mL MH media with B. cereus cells and incubating at 30 °C at 180 rpm for 12 h. 2.5 mL of the culture was inoculated into a 250 mL MH media and incubated at 30 °C for 72 h. Furthermore, culture was temperature-treated at 80 °C for 30 min to eliminate the vegetative cells. Spore suspension was stored at 4 °C until further use. Two microliters of spore suspension was used to test the effect of HSEP3 and Nisin on spore germination using resazurin. All experiments were repeated at least twice.

[15] = microdilution broth, MH broth, 5 × 10^5 CFU/mL, 37 °C, 5–6 h, resazurin
[16] = microdilution broth (CLSI, modified), Mueller-Hinton broth, 5 × 10^5 CFU/mL, 37 °C, 7–8 h, resazurin colour change, three independent experiments in triplicates

T1 sequence (P00760 24-246): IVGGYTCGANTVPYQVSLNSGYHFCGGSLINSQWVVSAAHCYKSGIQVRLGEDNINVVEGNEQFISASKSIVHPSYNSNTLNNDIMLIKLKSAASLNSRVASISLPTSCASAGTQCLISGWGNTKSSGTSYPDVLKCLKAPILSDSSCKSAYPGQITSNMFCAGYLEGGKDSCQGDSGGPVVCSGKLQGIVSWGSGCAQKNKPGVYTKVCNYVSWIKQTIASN

Compound | hemolytic activity [4] [%] | MIC Bacillus cereus [5, 15] [µg/mL] | MIC Salmonella typhimurium [6, 15] [µg/mL] | MIC Pectobacterium carotovorum [7, 15] [µg/mL] | MIC Staphylococcus aureus [8, 15] [µg/mL] | MIC Escherichia coli [9, 15] [µg/mL] | MIC (µg/mL) M. luteus [1, 16] [µg/mL] | MIC Listeria monocytogenes [10, 15] [µg/mL] | Ki [11] [nM] | further results
CC[C@H](C)[C@H](NC(=O)[C@@H](NC(=O)[C@@H](N)CO)C(C)C)C(=O)N[C@@H](Cc1ccccc1)C(=O)NCC(=O)N[C@H]1CSSC[C@@H](C(=O)N[C@@H](Cc2ccccc2)C(=O)N[C@H](C(=O)NCC(=O)N[C@@H](Cc2ccccc2)C(=O)N[C@@H](CCCCN)C(=O)O)C(C)C)NC(=O)[C@H]([C@@H](C)CC)NC(=O)[C@@H]2CCCN2C(=O)[C@@H]2CCCN2C(=O)[C@H]([C@@H](C)CC)NC(=O)[C@H](CO)NC(=O)[C@H]([C@@H](C)O)NC1=O [HSEP2-∆K8] (H-SVIFGCTSIPPICFVGFK-OH; disulfide 6-13; N-terminus and C-terminus assumed) |  |  |  |  |  |  |  |  |  | MIC (µg/mL) M. luteus ([1]; microdilution broth (CLSI, modified), Mueller-Hinton broth, 5 × 10^5 CFU/mL, 37 °C, 7–8 h, resazurin colour change, three independent experiments in triplicates, listed as HSEP2-ΔK8): did not show any antibacterial activity; Ki (M) against bovine trypsin ([2]; listed as HSEP2-ΔK8): failed to show any trypsin inhibition; PI uptake fluorescence intensity of treated bacterial cells [3]: minimal fluorescence intensity
CC[C@H](C)[C@H](NC(=O)[C@@H](NC(=O)[C@@H](N)CO)C(C)C)C(=O)N[C@@H](Cc1ccccc1)C(=O)NCC(=O)N[C@H]1CSSC[C@@H](C(=O)N[C@@H](Cc2ccccc2)C(=O)N[C@H](C(=O)NCC(=O)N[C@@H](Cc2ccccc2)C(=O)N[C@@H](CCCCN)C(=O)O)C(C)C)NC(=O)[C@H]([C@@H](C)CC)NC(=O)[C@@H]2CCCN2C(=O)[C@@H]2CCCN2C(=O)[C@H]([C@@H](C)CC)NC(=O)[C@H](CO)NC(=O)[C@H](CCCCN)NC(=O)[C@H]([C@@H](C)O)NC1=O [HSEP2] (H-SVIFGCTKSIPPICFVGFK-OH; disulfide 6-14) | < 5 | 75 (≈ 36.7 µM) | >150 | 150 (≈ 73.5 µM) | >150 | 150 (≈ 73.5 µM) | 6.25 (≈ 3.06 µM) | >150 | 580 | cell viability ([12]; peptide concentration 200 µg/mL): > 70%; cell viability ([12]; peptide concentration range 0–160 µg/mL, three biological replicates): > 80%
CC[C@H](C)[C@H](NC(=O)[C@@H](NC(=O)[C@H](CO)NC(=O)[C@@H](N)CCCNC(=N)N)C(C)C)C(=O)N[C@@H](Cc1ccccc1)C(=O)NCC(=O)N[C@H]1CSSC[C@@H](C(=O)N[C@@H](Cc2ccccc2)C(=O)N[C@H](C(=O)NCC(=O)N[C@@H](Cc2ccccc2)C(=O)N[C@@H](CCCCN)C(=O)O)C(C)C)NC(=O)[C@H](Cc2ccccc2)NC(=O)[C@H](CCCNC(=N)N)NC(=O)[C@H](CCCNC(=N)N)NC(=O)[C@H](Cc2ccc(O)cc2)NC1=O [HSEP3-∆TL,CL^+] (H-RSVIFGCYRRFCFVGFK-OH; disulfide 7-12) |  |  |  |  |  |  |  |  |  | MIC Bacillus cereus ([5]; ATCC11778): >150 µg/mL; MIC Salmonella typhimurium ([6]; ATCC9844): >150 µg/mL; MIC Pectobacterium carotovorum [7]: >150 µg/mL; MIC Staphylococcus aureus ([8]; ATCC12900): >150 µg/mL; MIC Escherichia coli ([9]; ATCC11775): >150 µg/mL; MIC (µg/mL) M. luteus ([1]; ATCC4698): 3.125 µg/mL (≈ 1.5 µM); MIC Listeria monocytogenes ([10]; ATCC13932): >150 µg/mL; Ki (M) against bovine trypsin [2]: did not show any anti-trypsin activity
CC[C@H](C)[C@H](NC(=O)[C@@H](NC(=O)[C@H](CO)NC(=O)[C@@H](N)CCCNC(=N)N)C(C)C)C(=O)N[C@@H](Cc1ccccc1)C(=O)NCC(=O)N[C@H]1CSSC[C@@H](C(=O)N[C@@H](Cc2ccccc2)C(=O)N[C@H](C(=O)NCC(=O)N[C@@H](Cc2ccccc2)C(=O)N[C@@H](CCCCN)C(=O)O)C(C)C)NC(=O)[C@H]([C@@H](C)CC)NC(=O)[C@@H]2CCCN2C(=O)[C@@H]2CCCN2C(=O)[C@H]([C@@H](C)CC)NC(=O)[C@H](CO)NC(=O)[C@H](CCCCN)NC(=O)[C@H]([C@@H](C)O)NC1=O [HSEP3] (H-RSVIFGCTKSIPPICFVGFK-OH; disulfide 7-15) | < 5 | 12.5 (≈ 5.69 µM) | 85 (≈ 38.7 µM) | 50 (≈ 22.8 µM) | 150 (≈ 68.3 µM) | 150 (≈ 68.3 µM) | 1.25 (≈ 0.569 µM) | 50 (≈ 22.8 µM) | 200 | Effect of steam heat on antibacterial activity (in complex media), MIC ([13]; autoclaved at 121 °C for 20 min, LB media): 50 µg/mL; Effect of steam heat on antibacterial activity (in MH media), MIC ([13]; autoclaved at 121 °C for 20 min, MH media): 12.5 µg/mL; Effect of dry heat on antibacterial activity, MIC ([13]; heated at 95 °C for 30 min): 12.5 µg/mL; Inhibition of B. cereus spore germination (MIC) [14]: 12.5 µg/mL
